The values below come from US11873317B2, “Galectin-3 inhibiting c-glycosides” (GLYCOMIMETICS, INC., priority 2018, dated 2024).

Each structure is given as a SMILES string.

In the assay the target is T1, galectin-3 (Homo sapiens, UniProt P17931).
T1 construct: purchased IBL IBATGP0414
T1 sequence (P17931 whole entry): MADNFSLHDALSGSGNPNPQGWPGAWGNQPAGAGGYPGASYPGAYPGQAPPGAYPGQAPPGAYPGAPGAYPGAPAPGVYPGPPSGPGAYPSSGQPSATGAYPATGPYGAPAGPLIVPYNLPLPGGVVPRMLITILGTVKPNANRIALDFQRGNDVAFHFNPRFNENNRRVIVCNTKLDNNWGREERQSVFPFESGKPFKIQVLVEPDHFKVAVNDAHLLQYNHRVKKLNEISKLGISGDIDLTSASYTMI
Put plainly: Galectin-3 Activity ELISA assay: inhibition of binding of galectin-3 to a Galβ1-3GlcNAc carbohydrate structure. To be noted: galectin-3 binding to immobilized Galβ1-3GlcNAc polymer, A450 readout, read-out: IC50 Galectin-3 Antagonist Activity. The protocol: Galectin-3 antagonists were evaluated for their ability to inhibit binding of galectin-3 to a Galβ1-3GlcNAc carbohydrate structure. The detailed protocol was as follows. A 1 ug/mL suspension of a Galβ1-3GlcNAcβ1-3Galβ1-4GcNAcβ-PAA-biotin polymer (Glycotech, catalog number 01-096) was prepared. A 100 uL aliquot of the polymer was added to the wells of a 96-well streptavidin-coated plate (R&D Systems, catalog number CP004). A 100 uL aliquot of IX Tris Buffered Saline (TBS, Sigma, catalog number T5912-10×) was added to control wells. The polymer was allowed to bind to the streptavidin-coated wells for 1.5 hours at room temperature. The contents of the wells were discarded and 200 uL of 1×TBS containing 1% bovine serum albumin (BSA) was added to each well as a blocking reagent and the plate was kept at room temperature for 30 minutes. The wells were washed three times with IX TBS containing 0.1% BSA. A serial dilution of test compounds was prepared in a separate V-bottom plate (Corning, catalog number 3897). A 75 uL aliquot of the highest concentration of the compound to be tested was added to the first well in a column of the V-bottom plate then 15 ul were serially transferred into 60 uL IX TBS through the remaining wells in the column to generate a 1 to 5 serial dilution. A 60 uL aliquot of 2 ug/mL galectin-3 (IBL, catalog number IBATGP0414) was added to each well in the V-bottom plate. A 100 uL aliquot of the galectin-3/test compound mixture was transferred from the V-bottom plate into the assay plate containing the Galβ1-3GlcNAc polymer. Four sets of control wells in the assay plate were prepared in duplicate containing 1) both Galβ1-3GlcNAc polymer and galectin-3, 2) neither the polymer nor galectin-3, 3) galectin-3 only, no polymer, or 4) polymer only, no galectin-3. The plate was gently rocked for 1.5 hours at room temperature. The wells were washed four times with TBS/0.1% BSA. A 100 uL aliquot of anti-galectin-3 antibody conjugated to horse radish peroxidase (R&D Systems, from DGAL30 kit) was added to each well and the plate was kept at room temperature for 1 hour. The wells were washed four times with TBS/0.1% BSA. A 100 uL aliquot of TMB substrate solution was added to each well. The TMB substrate solution was prepared by making a 1:1 mixture of TMB Peroxidase Substrate (KPL, catalog number 5120-0048) and Peroxidase Substrate Solution B (KPL, catalog number 5120-0037). The plate was kept at room temperature for 10 to 20 minutes. The color development was stopped by adding 100 uL 10% phosphoric acid (RICCA Chemical Co., catalog number 5850-16). The absorbance at 450 nm (A450) was measured using a FlexStation 3 plate reader (Molecular Devices). Plots of A450 versus test compound concentration and IC50 determinations were made using GraphPad Prism 6.
In the case of `COC(=O)[C@@H](OCc1ccccc1)[C@@H]1OC(CO)[C@H](O)C(n2cc(-c3cc(F)c(F)c(F)c3)nn2)C1O` (stereo partly shown) [Compound 13], the IC50 was found to be 3480 nM.
For `CNC(=O)[C@@H](OCc1ccc2ccccc2c1)[C@@H]1OC(CO)[C@H](O)C(n2cc(-c3cc(F)c(F)c(F)c3)nn2)C1O` (stereo partly shown) [Compound 16], the IC50 is 530 nM.
As to `CNC(=O)[C@@H](OCc1cccc(-c2ccccc2)c1)[C@@H]1OC(CO)[C@H](O)C(n2cc(-c3cc(F)c(F)c(F)c3)nn2)C1O` (stereo partly shown) [Compound 17], the IC50 was found to be 2560 nM.
Under `CNC(=O)[C@@H](OCc1cccc(C(=O)OC)c1)[C@@H]1OC(CO)[C@H](O)C(n2cc(-c3cc(F)c(F)c(F)c3)nn2)C1O` (stereo partly shown) [Compound 18] stands 670 nM; under `CNC(=O)[C@@H](OCc1ccc(Cl)cc1)[C@@H]1OC(CO)[C@H](O)C(n2cc(-c3cc(F)c(F)c(F)c3)nn2)C1O` (stereo partly shown) [Compound 19], 320 nM.
On to `CNC(=O)[C@@H](OCc1cccc(Cl)c1)[C@@H]1OC(CO)[C@H](O)C(n2cc(-c3cc(F)c(F)c(F)c3)nn2)C1O` (stereo partly shown) [Compound 20], for which the IC50 amounted to 1520 nM.
Consider `CNC(=O)[C@@H](OCc1cccc(OC(F)(F)F)c1)[C@@H]1OC(CO)[C@H](O)C(n2cc(-c3cc(F)c(F)c(F)c3)nn2)C1O` (stereo partly shown) [Compound 21], for which the IC50 is 1940 nM.
As to `CNC(=O)[C@@H](OCc1ccc(F)cc1)[C@@H]1OC(CO)[C@H](O)C(n2cc(-c3cc(F)c(F)c(F)c3)nn2)C1O` (stereo partly shown) [Compound 24], the IC50 worked out at 1720 nM.
With `CNC(=O)[C@@H](OCc1ccc(F)c(F)c1)[C@@H]1OC(CO)[C@H](O)C(n2cc(-c3cc(F)c(F)c(F)c3)nn2)C1O` (stereo partly shown) [Compound 25], the IC50 was 1080 nM.
For the molecule `CNC(=O)[C@@H](OCc1ccc(C(F)(F)F)cc1)[C@@H]1OC(CO)[C@H](O)C(n2cc(-c3cc(F)c(F)c(F)c3)nn2)C1O` (stereo partly shown) [Compound 26], the IC50 worked out at 350 nM.
Turning to `CNC(=O)[C@@H](OCc1ccc(F)c(Cl)c1)[C@@H]1OC(CO)[C@H](O)C(n2cc(-c3cc(F)c(F)c(F)c3)nn2)C1O` (stereo partly shown) [Compound 27], the IC50 was determined as 2090 nM.
As to `CNC(=O)[C@@H](OCc1ccc(S(C)(=O)=O)cc1)[C@@H]1OC(CO)[C@H](O)C(n2cc(-c3cc(F)c(F)c(F)c3)nn2)C1O` (stereo partly shown) [Compound 28], the IC50 is 690 nM.
As to `CNC(=O)[C@@H](OCc1ccc(C(=O)OC)cc1)[C@@H]1OC(CO)[C@H](O)C(n2cc(-c3cc(F)c(F)c(F)c3)nn2)C1O` (stereo partly shown) [Compound 29], the IC50 stood at 4600 nM.
As for `CNC(=O)[C@@H](OCc1ccc(OC(F)(F)F)cc1)[C@@H]1OC(CO)[C@H](O)C(n2cc(-c3cc(F)c(F)c(F)c3)nn2)C1O` (stereo partly shown) [Compound 30], the IC50 came out at 4980 nM.
For `CNC(=O)[C@@H](OCc1ccc(Cl)c(F)c1)[C@@H]1OC(CO)[C@H](O)C(n2cc(-c3cc(F)c(F)c(F)c3)nn2)C1O` (stereo partly shown) [Compound 31] the value was 180 nM.
`CNC(=O)[C@@H](OCc1ccc(OC)cc1)[C@@H]1OC(CO)[C@H](O)C(n2cc(-c3cc(F)c(F)c(F)c3)nn2)C1O` (stereo partly shown) [Compound 32]: the IC50 stood at 2810 nM.
With `CNC(=O)[C@@H](OCc1ccc(C2CC2)cc1)[C@@H]1OC(CO)[C@H](O)C(n2cc(-c3cc(F)c(F)c(F)c3)nn2)C1O` (stereo partly shown) [Compound 33], the IC50 stood at 1640 nM.
For `CNC(=O)[C@@H](OCc1cccnc1)[C@@H]1OC(CO)[C@H](O)C(n2cc(-c3cc(F)c(F)c(F)c3)nn2)C1O` (stereo partly shown) [Compound 34] the value was 850 nM; for `CCCCNC(=O)[C@@H](OCc1ccccc1)[C@@H]1OC(CO)[C@H](O)C(n2cc(-c3cc(F)c(F)c(F)c3)nn2)C1O` (stereo partly shown) [Compound 35], more than 100000 nM; for `CNC(=O)[C@@H](OCc1ccccc1)[C@@H]1OC(CO)[C@H](O)C(n2cc(-c3cc(F)c(F)c(F)c3)nn2)C1O` (stereo partly shown) [Compound 36], 3860 nM.
In the case of `CNC(=O)[C@@H](OCc1ccccc1)[C@@H]1OC(CO)[C@H](O)[C@H](n2cc(-c3cc(F)c(F)c(F)c3)nn2)C1OC` (stereo partly shown) [Compound 40], the IC50 was 2610 nM.
For `COC1[C@H]([C@H](OCc2ccccc2)C(=O)N(C)C)OC(CO)[C@H](O)[C@@H]1n1cc(-c2cc(F)c(F)c(F)c2)nn1` (stereo partly shown) [Compound 41], the IC50 was determined as 9580 nM.
As to `COC1C(n2cc(-c3cc(F)c(F)c(F)c3)nn2)[C@@H](O)C(CO)O[C@H]1[C@H](OCc1ccc(Cl)cc1)C(=O)N(C)C` (stereo partly shown) [Compound 42], the IC50 is 2060 nM.
On to `COC1C(n2cc(-c3cc(F)c(F)c(F)c3)nn2)[C@@H](O)C(CO)O[C@H]1[C@H](OCc1ccc(Cl)cc1)C(=O)Nc1ccccc1F` (stereo partly shown) [Compound 69], for which the IC50 amounted to 230 nM.
With `COC1C(n2cc(-c3cc(F)c(F)c(F)c3)nn2)[C@@H](O)C(CO)O[C@H]1[C@H](OCc1ccc(Cl)cc1)C(=O)NCC(F)(F)F` (stereo partly shown) [Compound 70], the IC50 is 720 nM.
